Consider nine compounds from patent publication US8703790B2, “Bis [O-(14-benzoylaconine-8-yl)] esters” (priority 2008, dated 2014).

Assay [1] relates to HCT-15 (colon cancer). Put plainly: In vitro cytotoxicity test (MTT) against human tumour cell line HCT-15. Type of assay: cell-based. The conditions noted are these: HCT-15, 24 h contact, 48 h re-growth. The procedure: (§1) Human tumour cell lines A549 (lung cancer), HCT-15 (colon cancer) and MCF-7 (breast cancer) have been obtained from the Developmental Therapeutics Program of the National Cancer Institute (Rockville, Md., USA). Cells were routinely grown with RPMI 1640 medium supplemented with 10% foetal calf serum, both obtained from Biochrom AG (Berlin, Germany). They were grown on Petri dishes (Nunc, Denmark) at 37° C. in a humidified atmosphere containing 5% CO2. Cells were replicated every 4 days and the medium changed once in-between.
(§2) Cytotoxicity has been evaluated on exponentially growing cells grown for 24 h in presence of the compounds to be tested. Briefly, 4000 cells were seeded in 96-well plates with 200 μL of complete medium; 24 hours later the medium was supplemented with a series of different concentrations of compounds and the contact maintained for 24 h. Compounds were dissolved in pure water and sterilised using polycarbonate membrane filters of 0.22 μm (Millipore, Molsheim, France). The cells were then allowed to re-grow for 48 hours; viable and metabolically active cells were quantitatively estimated by coloration with the MTT dye (1-(4,5-dimethylthyazol-2-yl)-3,5-diphenylformazan), Sigma-Aldrich Chimie, Saint-Quentin-Fallavier, France). The amount of substance allowing a 50% decrease in cell numbers is indicative of the cytotoxicity and represents the IC50 of compound.

In assay [2] the test system is A549 (lung cancer). Put plainly: In vitro cytotoxicity test (MTT) against human tumour cell line A549. Conditions: A549, 24 h contact, 48 h re-growth. The assay is classed as cell-based. The procedure:
as §1, §2

In assay [3] the test system is MCF-7 (breast cancer). Kind of assay: In vitro cytotoxicity test (MTT) against human tumour cell line MCF-7. The assay is classed as cell-based. The conditions noted are these: MCF-7, 24 h contact, 48 h re-growth. The procedure: as §1, §2
Assay [4] concerns HTC-15 (colon cancer), A549 (lung cancer), MCF-7 (breast cancer). The conditions noted are these: HTC-15, A549, MCF-7; publication A. Chodoeva et al.; read-out: IC50 in these three cell lines; cited from earlier work.
Assay [5] deals with A549. Conditions: A549, NCI data base values; cited from earlier work.
Assay [6] concerns MCF-7. The conditions noted are these: MCF-7, NCI data base values; cited from earlier work.
The test system of assay [7] is HCT-15. Conditions: HCT-15, NCI data base values; cited from earlier work.
For assay [8] the following is noted: background statement; cited from earlier work.
Assay [9] concerns mouse tumours. The conditions noted are these: mouse tumours in vivo; cited from earlier work.
Assay [10] concerns mitochondrial oxidoreductases. The conditions noted are these: tumour cells; Picardo et al. 1985; cited from earlier work.

SMILES strings stand for the structures.

Turning to `CCN1C[C@]2(COC)[C@H](O)C[C@H](OC)[C@]34C1[C@H]([C@H](OC)[C@H]23)[C@]1(OC(=O)CCCCCC(=O)O[C@]23[C@H]5[C@@H](OC(=O)c6ccccc6)[C@](O)(C[C@H]5[C@@]56C7[C@@H]2[C@H](OC)[C@@H]5[C@](COC)(CN7CC)[C@H](O)C[C@@H]6OC)[C@@H](OC)[C@@H]3O)[C@H]2[C@@H](OC(=O)c3ccccc3)[C@](O)(C[C@H]24)[C@@H](OC)[C@@H]1O` [PDD, bis[O-(14-benzoylaconine-8-yl)]-pimelate], the IC50 (usually the concentration that gives 50% inhibition) came out at 3.76 µM in [1], 3.76 µM in assay [2] and 7.5 µM in [3].

Take `CCN1CC2(COC)C(O)CC(OC)C34C5CC6(O)C(OC)C(O)C(OC(=O)CCCCCCCC(=O)O)(C5C6OC(=O)c5ccccc5)C(C(OC)C23)C14` (stereo not shown) [8-O-azeloyl-14-benzoylaconine, reference compound]: the IC50 is 19.4 µM in [1], 16.8 µM in assay [2], 10 to 18 µM in assay [4] and 10.3 µM in assay [3].

With `O=c1[nH]cc(F)c(=O)[nH]1` [5-FU, fluorouracil], the IC50 in assay [5] is 2.11 µM; in assay [6] it was 1.75 µM; in assay [7], 5.69 µM.

`COc1cc([C@@H]2c3cc4c(cc3[C@@H](O[C@@H]3O[C@@H]5CO[C@@H](C)O[C@H]5[C@H](O)[C@H]3O)[C@H]3COC(=O)[C@H]23)OCO4)cc(OC)c1O` [etoposide]: the IC50 is 3.61 µM in assay [5], 5.73 µM in [6] and 17.6 µM in assay [7].

For the compound `CCN1C[C@]2(COC)[C@H](O)C[C@H](OC)[C@]34C1[C@H]([C@H](OC)[C@H]23)[C@]1(O)[C@H]2[C@@H](O)[C@](O)(C[C@H]24)[C@@H](OC)[C@@H]1O` [Aconine], the antiproliferative activity result in [8] is given as “devoid of antiproliferative activity”.

For `N.N.[Cl][Pt][Cl]` [cisplatin], the values for the IC50 in assay [5], in assay [6] and in [7] were 3.08 µM, 3.01 µM and 7.21 µM, respectively.

Consider `CCN1C[C@]2(COC)[C@H](O)C[C@H](OC)[C@]34C1[C@H]([C@H](OC)[C@H]23)[C@]1(OC(=O)CCCCCCCC(=O)O[C@]23[C@H]5[C@@H](OC(=O)c6ccccc6)[C@](O)(C[C@H]5[C@@]56C7[C@@H]2[C@H](OC)[C@@H]5[C@](COC)(CN7CC)[C@H](O)C[C@@H]6OC)[C@@H](OC)[C@@H]3O)[C@H]2[C@@H](OC(=O)c3ccccc3)[C@](O)(C[C@H]24)[C@@H](OC)[C@@H]1O` [ADD, bis[O-(14-benzoylaconine-8-yl)]-azelate], for which the IC50 in assay [1] came to 22 µM; in assay [2] it was 19.1 µM; in assay [3] it was 15.5 µM.

Take `O=C(O)CCCCCCCC(=O)O` [Azelaic acid, azelaic acid]: the antitumour activity entry in assay [9] is “total absence of antitumour activity”. Also, the “inhibition of mitochondrial oxidoreductases” value in [10] is on record as “inhibitor of mitochondrial oxidoreductases”.

Turning to `N[C@@H](Cc1ccc(N(CCCl)CCCl)cc1)C(=O)O` [mephalan], the IC50 is 28.7 µM in assay [5], 11.1 µM in assay [6] and 39.4 µM in assay [7].
